Assay results reported in patent publication US20250302728A1, “FRAGRANCE COMPOSITIONS AND PRODUCTS CONVEYING A POSITIVE MOOD” (SYMRISE AG, priority 2022, published 2025).

The molecules below were run on subject's mood (assay: Implicit response test (IRT)). Settings: ingredients of the fragrance composition conveying a fresh mood (Table 1).
Format: in vivo, human
Set-up: scale not given here
Experimental: (§1) 1. Sensorial and Emotional Evaluation of Fragrance Raw Materials Each fragrance was evaluated by 30 subjects. At each appointment, the subject discovered fragrances in one sequence of four fragrances and two sequences of three fragrances separated by a 10-minute break.
(§2) During those appointments, the subjects smelt the fragrances in a random way.
(§3) For each fragrance, the subject discovered each fragrance on a card strip for 10 seconds. Between each product, a rest-period of 2 minutes was carried out during which the subject smelt their own body odour by smelling their wrist and the subject drank a little bit of water as well.
(§4) The evaluation is carried out in standardized lighting conditions and under a monitored temperature (temperature 21±1.5° C.).
Implicit response tests (IRTs) are a family of tests and assess the subjects' immediate, “gut instinct” responses the fragrance raw materials.
The alleged underlying processes are based on how neurosciences describe the way our brain processes information. Indeed, our brain processes information through two systems: System 2, which is slow and processes conscious information, and System 1, which is fast and processes non-conscious information.
The IRT tests are performed at a computer, where the following words appear on the computer screen: • Energizing • Relaxing • Attractive • Sensual • Joyful • Protective • Confident • Fresh • Well-being
The subject has to click on the screen with the computer mouse to indicate their accordance or not of the word with the tested fragrance. In addition, the times to click the button are recorded.
In the case of `CC1(C)CCCC2(C)C1CCC1(C)OCCC12` (centres unmarked) [AMBROXIDE, 3a,6,6,9a-Tetramethyldodecahydronaphtho[2,1-b]furan], the “IRT Score” value is reported as 1643.

Same assay, conditions: ingredients of the fragrance composition conveying an attractive mood (Table 2)
`CC1(C)CCCC2(C)C1CCC1(C)OCCC12` (centres unmarked) [AMBROXIDE, 3a,6,6,9a-Tetramethyldodecahydronaphtho[2,1-b]furan] was tested, and the “IRT Score” value was 1921. With `CC1C(C)(C)C2=C(C(=O)CCC2)C1(C)C` (centres unmarked) [CASHMERAN, 1,1,2,3,3,-pentamethyl-2,5,6,7-tetrahydroinden-4-one] the “IRT Score” value was 1469. `CCc1occc(=O)c1O` [ETHYL MALTOL, 2-ethyl-3-hydroxy-pyran-4-one] was tested, and the “IRT Score” value was 3505. `CCOc1cc(C=O)ccc1O` [ETHYL VANILLIN, 3-ethoxy-4-hydroxy-benzaldehyde] was tested, and the “IRT Score” value was 2786. For Oxacyclohexadecen-2-one [GLOBALIDE ®], the “IRT Score” value was 1815.

Each molecule was assayed on subject's mood (assay: Sensorial and emotional evaluation of fragrance raw materials and fragrance compositions (prosody, verbatim, GEW, IRT, EmoChar combined to one mood)). Settings: 30 subjects, card strip for 10 seconds; details in FIG. 1-9.
Format: in vivo, human
Experimental: as §1, §2, §3, §4
The different recordings are carried in technical room during talking with the technicians. he following tests were performed for more than 100 different fragrance raw materials.
The following testing procedures were used to determine one mood out of five different testing strategies. All results of the single testing protocols as described in 1.1 to 1.5 were combined and one mood per fragrance raw material or fragrance composition was determined based on the single testing results.
Fragrance compositions were designed by combining the tested fragrance raw materials and the compositions were tested in 30 different subjects to evaluate the emotional impression conveyed by the fragrance composition as described above for the fragrance raw materials.
In the case of `C=CCOC(=O)CCC1CCCCC1` [ALLYL CYCLOHEXYL PROPIONATE, allyl 3-cyclohexylpropanoate], the “mood conveyed by the fragrance raw material” value (“mood conveyed” below) is reported as “conveying a joyful mood”. With `CC1(C)CCCC2(C)C1CCC1(C)OCCC12` (centres unmarked) [AMBROXIDE, 3a,6,6,9a-Tetramethyldodecahydronaphtho[2,1-b]furan] the “mood conveyed” value was “conveying a self-confident mood”. In the case of `CC1C(C)(C)C2=C(C(=O)CCC2)C1(C)C` (centres unmarked) [CASHMERAN, 1,1,2,3,3,-pentamethyl-2,5,6,7-tetrahydroinden-4-one], the “mood conveyed” value is reported as “conveying a protective mood”. `COC1(C)CCC23CC1C(C)(C)C2CCC3C` (centres unmarked) [CEDRAMBER, 8-methoxy-2,6,6,8-tetramethyl-tricyclo[5.3.1.01,5]undecane] was tested, and the “mood conveyed” value was “conveying a sensual mood”. With `CCc1occc(=O)c1O` [ETHYL MALTOL, 2-ethyl-3-hydroxy-pyran-4-one] the “mood conveyed” value was “conveying an attractive mood”. `CCOc1cc(C=O)ccc1O` [ETHYL VANILLIN, 3-ethoxy-4-hydroxy-benzaldehyde] was tested, and the “mood conveyed” value was “conveying a well-being mood”. For Oxacyclohexadecen-2-one [GLOBALIDE ®], the “mood conveyed” value was “conveying a relaxing mood”.

What follows are molecules tested on subject's mood (assay: Actimood scoring (correlation of EmoChar and IRT values)). Settings: attractive mood (Table 11); scale 0 (low impact) to 3 (high impact).
Format: in vivo, human
Experimental: as §1, §3
Emochar™ is a system of emotional characterization, scoring 7 main emotional dimensions from 0 to 10: • Stimulation: focus, attention, and awakening. • Relaxation: serenity, relaxation and appeasing. • Sensual: arousing, sexy and erotic. • Pleasure: liking, “gourmand” and satisfaction. • Tenderness: gentleness and softness. • Joy: excitement, fun and enthusiasm. • Self-esteem: confidence and assurance
Actimood scores are based on a correlation of EmoChar™ and IRT values. The scores are classified on a scale from 0 (low impact on subject's mood) to 3 (high impact on subject's mood).
Each score is obtained according to an algorithm, mixing verbal and non-verbal responses of volunteers to a specific product, or stimulus in a given context. The algorithm was developed from extensive field data, and in accordance with scientific literature and validated biobehavioral patterns associated to various emotional states.
Work on `CC1(C)CCCC2(C)C1CCC1(C)OCCC12` (centres unmarked) [AMBROXIDE, 3a,6,6,9a-Tetramethyldodecahydronaphtho[2,1-b]furan] yielded an Actimood score of 3. Molecule `CC1C(C)(C)C2=C(C(=O)CCC2)C1(C)C` (centres unmarked) [CASHMERAN, 1,1,2,3,3,-pentamethyl-2,5,6,7-tetrahydroinden-4-one] has an Actimood score of 3. Molecule `CCc1occc(=O)c1O` [ETHYL MALTOL, 2-ethyl-3-hydroxy-pyran-4-one] has an Actimood score of 3. With `CCOc1cc(C=O)ccc1O` [ETHYL VANILLIN, 3-ethoxy-4-hydroxy-benzaldehyde] the Actimood score was 3. With Oxacyclohexadecen-2-one [GLOBALIDE ®] the Actimood score was 3.

Same assay, conditions: fresh mood (Table 12); scale 0 (low impact) to 3 (high impact)
Work on `CC1(C)CCCC2(C)C1CCC1(C)OCCC12` (centres unmarked) [AMBROXIDE, 3a,6,6,9a-Tetramethyldodecahydronaphtho[2,1-b]furan] yielded an Actimood score of 3.

Same assay, conditions: joyful mood (Table 6); scale 0 (low impact) to 3 (high impact)
`C=CCOC(=O)CCC1CCCCC1` [ALLYL CYCLOHEXYL PROPIONATE, allyl 3-cyclohexylpropanoate] gave an Actimood score of 3. In the case of `CC1(C)CCCC2(C)C1CCC1(C)OCCC12` (centres unmarked) [AMBROXIDE, 3a,6,6,9a-Tetramethyldodecahydronaphtho[2,1-b]furan], the Actimood score is reported as 3. With `CCc1occc(=O)c1O` [ETHYL MALTOL, 2-ethyl-3-hydroxy-pyran-4-one] the Actimood score was 3.

Same assay, conditions: protective mood (Table 5); scale 0 (low impact) to 3 (high impact)
Molecule `CC1C(C)(C)C2=C(C(=O)CCC2)C1(C)C` (centres unmarked) [CASHMERAN, 1,1,2,3,3,-pentamethyl-2,5,6,7-tetrahydroinden-4-one] has an Actimood score of 2. Molecule `CCOc1cc(C=O)ccc1O` [ETHYL VANILLIN, 3-ethoxy-4-hydroxy-benzaldehyde] has an Actimood score of 1. Oxacyclohexadecen-2-one [GLOBALIDE ®] gave an Actimood score of 2.

Same assay, conditions: self-confident mood (Table 9); scale 0 (low impact) to 3 (high impact)
`CC1C(C)(C)C2=C(C(=O)CCC2)C1(C)C` (centres unmarked) [CASHMERAN, 1,1,2,3,3,-pentamethyl-2,5,6,7-tetrahydroinden-4-one] gave an Actimood score of 2.

Same assay, conditions: sensual mood (Table 8); scale 0 (low impact) to 3 (high impact)
`CC1(C)CCCC2(C)C1CCC1(C)OCCC12` (centres unmarked) [AMBROXIDE, 3a,6,6,9a-Tetramethyldodecahydronaphtho[2,1-b]furan] was tested, and the Actimood score was 2. For `COC1(C)CCC23CC1C(C)(C)C2CCC3C` (centres unmarked) [CEDRAMBER, 8-methoxy-2,6,6,8-tetramethyl-tricyclo[5.3.1.01,5]undecane], the Actimood score was 3.

Same assay, conditions: well-being mood (Table 10); scale 0 (low impact) to 3 (high impact)
`CC1(C)CCCC2(C)C1CCC1(C)OCCC12` (centres unmarked) [AMBROXIDE, 3a,6,6,9a-Tetramethyldodecahydronaphtho[2,1-b]furan] showed an Actimood score of 3. For `CC1C(C)(C)C2=C(C(=O)CCC2)C1(C)C` (centres unmarked) [CASHMERAN, 1,1,2,3,3,-pentamethyl-2,5,6,7-tetrahydroinden-4-one], the Actimood score was 1. In the case of `COC1(C)CCC23CC1C(C)(C)C2CCC3C` (centres unmarked) [CEDRAMBER, 8-methoxy-2,6,6,8-tetramethyl-tricyclo[5.3.1.01,5]undecane], the Actimood score is reported as 0. Molecule Oxacyclohexadecen-2-one [GLOBALIDE ®] has an Actimood score of 2.
